Experimental data from patent US20230227477A1, “COMPOUNDS FOR SENSING REACTIVE OXYGEN SPECIES AND METHODS FOR USING THE SAME” (WAKE FOREST UNIVERSITY HEALTH SCIENCES, priority 2020, published 2023).

Key:
[1] = Selectivity screen of compound RAH2115 against oxidants, reductants, nucleophiles and salts (turn-on fluorescence); type: physicochemical; settings: RAH2115 10 μM
From the text: Given the longer excitation and emission profile of resorufin, it was hypothesized that compound RAH2115 would provide a better gauge of the overall selectivity and sensitivity of the scaffold towards H2O2 while confirming its potential applications within a biological setting. The high selectivity the scaffold towards H2O2 was confirmed by thoroughly screening compound RAH2115 against various oxidants, reductants, and nucleophiles in PBS buffer (pH 7.4) and measuring the resulting turn-on fluorescence after a 2 h incubation period (See FIG. 4, Graph A).
[…] Next, 1.080 mL of a freshly prepared 111.1 μM compound RAH2115 stock solution was added to 10.80 mL of 1× PBS buffer (pH 7.4) to give a total volume of 11.88 mL. 120 μL of analyte stock solution (PBS buffer alone, hydrogen peroxide, glutathione, glutathione disulfide, sodium nitrite, L-cysteine, L-lysine, L-serine, sodium chloride, sodium bromide, L-homocysteine, sodium sulfide, sodium sulfate, sodium thiosulfate and sodium hypochlorite) was then added to give a final volume of 12 mL, and each reaction was left to stir at 37° C.

[2] = Initial rates of fluorescence intensity of compound RAH2115 vs H2O2 concentration; detection limit; type: physicochemical; settings: Detection Limit=3σ/κ, slope from FIG. 4 Graph B
Experimental: The initial response rate of compound RAH2115 was also verified to be directly proportional to the concentration of H2O2. Specifically, immediately prior to use, 5 mM and 0.5 mM stock solutions of hydrogen peroxide were prepared in freshly degassed 1× PBS buffer (pH 7.4) using reagent grade H2O2 (30%). A 100 μM stock solution of compound RAH2115 was prepared in 200-proof ethanol. […] The plate was inserted into a 96-well plate reader (BioTek SYNERGY-HTX hybrid multi-mode reader, Winooski, Vt.) heated to 37° C., and agitated to ensure homogeneity. Fluorescence measurements were recorded and plotted as the change in initial rates of fluorescence intensity vs hydrogen peroxide concentration. This assay was repeated in triplicate and recorded as the mean+/−STDEV from three experiments.
This finding was deemed to be of great significance as the rate of payload release from the scaffold could then be tuned by varying the amount of H2O2. In addition, this finding also allowed for reaction-based fluorescent probes based off of this design (i.e., compound RAH2115) to be used to accurately quantify the amount of H2O2 in buffered solutions. Indeed, as depicted in FIG. 4, Graph B, when the initial rates of increasing fluorescence intensity of compound RAH2115 were plotted versus hydrogen peroxide concentration, excellent linearity between 0-1 mM was observed (R^2=0.99). […]

[3] = test system: HeLa cells; assay: Imaging hydrogen peroxide in living HeLa cells with compound RAH2115 (confocal); type: cell-based, human; settings: ex: 561 nm, em: 587 nm
Experimental: HeLa (human cervical cancer) cells were grown and maintained appropriately according to the American Type Culture Collection (Manassas, Va.). Dulbecco's Modified Eagle Medium:F12-K (1:1) was supplemented with 10% fetal bovine serum (FBS), 1% penicillin-streptomycin, and 1% L-glutamine (ThermoFisher). Cells were incubated at 37° C. in a 5% CO2 atmosphere and split at 70-80% confluency every 2-3 days.
At 70-80% confluency, HeLa cells were seeded on two 35 mm glass-bottom round plates (MatTek Corporation, Ashland, Mass.) at a density of 200 k cells/mL. After adhering overnight, FBS-free media was aspirated and cells were washed with phosphate buffered saline (1×, pH 7.4). Cells in one dish were then incubated with 10 mM Paraquat (Methyl Viologen) for 4 h. Afterwards, both dishes were washed and incubated with compound RAH2115 (10 μM) for 1 hour. After a final PBS wash, both plates were rehydrated in phenol red-free media for imaging. Both control (absence of paraquat) and experimental (presence of paraquat) plates were imaged: ex: 561 nm, em: 587 nm. […]
An automated cell selection algorithm within the ImageJ software was used to quantify intracellular fluorescence. Cells from both control and experimental groups were subjected to Gaussian smoothing in order to accurately measure fluorescence within cells based on a minimum threshold against background. […]

CC(C)(Cc1ccccc1B1OC(C)(C)C(C)(C)O1)C(=O)Oc1ccc2nc3ccc(=O)cc-3oc2c1 [compound RAH2115]
increase in relative fluorescence intensity when co-incubated with H2O2 ([1]; 1 mM H2O2, 2 h, vs PBS buffer alone): ~500 fold
increase in fluorescence intensity in the presence of other oxidants, reductants, nucleophiles and salts (in words) ([1]; 2 h, PBS pH 7.4, 37° C.): negligible
fluorescence (ex: 560 nm, em: 585 nm) ([1]; PBS pH 7.4, 37° C., 2 h, (1) PBS Buffer alone): 1.7+/−0.32
fluorescence (ex: 560 nm, em: 585 nm) ([1]; PBS pH 7.4, 37° C., 2 h, (2) 1 mM H2O2): 812.25+/−89.32
fluorescence (ex: 560 nm, em: 585 nm) ([1]; PBS pH 7.4, 37° C., 2 h, (3) 1 mM glutathione): 43.65+/−4.24
fluorescence (ex: 560 nm, em: 585 nm) ([1]; PBS pH 7.4, 37° C., 2 h, (4) 1 mM glutathione disulfide): 29.87+/−0.96
fluorescence (ex: 560 nm, em: 585 nm) ([1]; PBS pH 7.4, 37° C., 2 h, (5) 1 mM NaNO2): 47.10+/−11.06
fluorescence (ex: 560 nm, em: 585 nm) ([1]; PBS pH 7.4, 37° C., 2 h, (6) 1 mM L-cysteine): 2.63+/−0.13
fluorescence (ex: 560 nm, em: 585 nm) ([1]; PBS pH 7.4, 37° C., 2 h, (7) 1 mM L-lysine): 3.31+/−0.61
fluorescence (ex: 560 nm, em: 585 nm) ([1]; PBS pH 7.4, 37° C., 2 h, (8) 1 mM L-serine): 1.70+/−0.13
fluorescence (ex: 560 nm, em: 585 nm) ([1]; PBS pH 7.4, 37° C., 2 h, (9) 1 mM NaCl): 40.71+/−1.33
fluorescence (ex: 560 nm, em: 585 nm) ([1]; PBS pH 7.4, 37° C., 2 h, (10) 1 mM NaBr): 39.56+/−0.02
fluorescence (ex: 560 nm, em: 585 nm) ([1]; PBS pH 7.4, 37° C., 2 h, (11) 1 mM L-homocysteine): 74.32+/−5.27
fluorescence (ex: 560 nm, em: 585 nm) ([1]; PBS pH 7.4, 37° C., 2 h, (12) 100 mM Na2S): 46.97+/−1.47
fluorescence (ex: 560 nm, em: 585 nm) ([1]; PBS pH 7.4, 37° C., 2 h, (13) 1 mM sodium sulfate): 38.01+/−2.86
fluorescence (ex: 560 nm, em: 585 nm) ([1]; PBS pH 7.4, 37° C., 2 h, (14) 1 mM sodium thiosulfate): 1.72+/−0.22
fluorescence (ex: 560 nm, em: 585 nm) ([1]; PBS pH 7.4, 37° C., 2 h, (15) 1 mM sodium hypochlorite): 16.75+/−1.09
detection limit for H2O2 [2]: 1.5 µM
fluorescence in live HeLa cells pre-treated with paraquat (in words) ([3]; 10 mM paraquat 4 h, then RAH2115 10 μM 1 hour): strong red fluorescence within cells
fluorescence in live HeLa cells, absence of paraquat (in words) ([3]; RAH2115 10 μM, 1 hour, control without paraquat): no fluorescent cells were observed
